ChEMBL document CHEMBL1201862, “PubChem BioAssay data set” (2004)
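1) Cells in 96-well plates. 2) Compound, 48 h, 5 concentrations. 3) Linear interpolation between surrounding doses. 4) Unreached endpoint = highest concentration. Abbreviation: GI50, concentration required for 50% inhibition of growth.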 The source made the active and inactive calls. No stated cut-off is given here; in the data, active = GI50 up to about 1.1 µM and inactive = higher.

Key:
Assay in all cases: inhibition of tumour cell growth, NCI panel, 48 h
KM-20L2 = test system: KM-20L2
HCT-15 = test system: HCT-15
SN12C = test system: SN12C
SF-268 = test system: SF-268
OVCAR-3 = test system: OVCAR-3
OVCAR-5 = test system: OVCAR-5
EKVX = test system: EKVX
HT-29 = test system: HT-29
IGROV-1 = test system: IGROV-1
CCRF-CEM = test system: CCRF-CEM
K562 = test system: K562
UACC-257 = test system: UACC-257
SR = test system: SR
NCI/ADR-RES = test system: NCI/ADR-RES
Hs-578T = test system: Hs-578T
NCI-H460 = test system: NCI-H460
DU-145 = test system: DU-145
HCT-116 = test system: HCT-116
SK-MEL-2 = test system: SK-MEL-2
OVCAR-4 = test system: OVCAR-4

Row | SMILES | GI50 (KM-20L2) | GI50 (HCT-15) | GI50 (SN12C) | GI50 (SF-268) | GI50 (OVCAR-3) | GI50 (OVCAR-5) | GI50 (EKVX) | GI50 (HT-29) | GI50 (IGROV-1) | GI50 (CCRF-CEM) | GI50 (K562) | GI50 (UACC-257) | GI50 (SR) | GI50 (NCI/ADR-RES) | GI50 (Hs-578T) | GI50 (NCI-H460) | GI50 (DU-145) | GI50 (HCT-116) | GI50 (SK-MEL-2) | GI50 (OVCAR-4)
1 | C=CC(=O)C#CC#CC/C=C\CCCCCCC | > 20.6 µM (inactive) | > 20.6 µM | > 20.6 µM (inactive) | > 20.6 µM (inactive) | > 20.6 µM (inactive) | > 20.6 µM (inactive) | > 20.6 µM (inactive) | > 20.6 µM (inactive) | > 6.52 µM (inactive) | 4.9 µM (inactive) | 6.82 µM (inactive) | > 20.6 µM (inactive) | 5.65 µM (inactive) | > 20.6 µM (inactive) | > 20.6 µM (inactive) | > 20.6 µM (inactive) | > 20.6 µM (inactive) | > 17.6 µM (inactive) | > 20.6 µM (inactive) | > 20.6 µM (inactive)
2 | CC[C@]12C=CCN3CCC4(c5cc([C@@]6(C(=O)OC)CC7CN(CCc8c6[nH]c6ccccc86)CC6CCCCC67)c(OC)cc5N(C)C4[C@](O)(C(=O)OC)C1OC(C)=O)[C@@H]32 (some centres undefined) | < 0.01 µM (active) | 0.111 µM | < 0.01 µM (active) | < 0.01 µM (active) | < 0.01 µM (active) | 0.021 µM (active) | 0.743 µM (active) | < 0.01 µM (active) | < 0.01 µM (active) | < 0.01 µM (active) | < 0.01 µM (active) | < 0.01 µM (active) |  | 0.186 µM (active) | < 0.01 µM (active) | < 0.01 µM (active) | < 0.01 µM (active) | < 0.01 µM (active) | < 0.01 µM (active) | 3.38 µM (inactive)
3 | O=S1(=O)CS(=O)(=O)OCCO1 | 76.6 µM (inactive) | 48.6 µM | 66.1 µM (inactive) | 15.1 µM (inactive) | 40.3 µM (inactive) | 85.5 µM (inactive) | 81.8 µM (inactive) | 63.1 µM (inactive) | 33.4 µM (inactive) | 18.5 µM (inactive) | 60 µM (inactive) | 50.5 µM (inactive) | 153 µM (inactive) | 50.9 µM (inactive) | 54.3 µM (inactive) | 12.9 µM (inactive) | 51.1 µM (inactive) | 37.7 µM (inactive) | 50.8 µM (inactive) | 52.8 µM (inactive)
4 | O=Cc1ccc(-c2cccs2)s1 | 47.9 µM (inactive) | > 100 µM | > 100 µM (inactive) | > 96.8 µM (inactive) | 12.4 µM (inactive) | 16.7 µM (inactive) | 79.4 µM (inactive) | 63.5 µM (inactive) | 12.6 µM (inactive) | 81.8 µM (inactive) | 34.3 µM (inactive) | 6.62 µM (inactive) | 77.4 µM (inactive) | 42.2 µM (inactive) | 34.1 µM (inactive) | 33.5 µM (inactive) | > 100 µM (inactive) | 39.2 µM (inactive) | > 100 µM (inactive) | 56.4 µM (inactive)
5 | CCN(CC)c1ccc(/C=C2/C[N+](C)(C)C/C(=C/c3ccc(N(CC)CC)cc3)C2=O)cc1 | 2.59 µM (inactive) | > 100 µM | 3.17 µM (inactive) | 2.58 µM (inactive) | 2.12 µM (inactive) | 9.73 µM (inactive) | 5.96 µM (inactive) | 1.58 µM (inactive) | 2.19 µM (inactive) | 1.03 µM (active) | 1.01 µM (active) | 2.09 µM (inactive) | 0.968 µM (active) | > 100 µM (inactive) | 2.47 µM (inactive) | 2.92 µM (inactive) | 6.05 µM (inactive) | 2.3 µM (inactive) | 1.87 µM (inactive) | 3.01 µM (inactive)
